Measured values published in patent US12560591B2, “Methods of treatment with CD8 T cell-mediated immune therapy” (Providence Health & Services—Oregon, priority 2019, dated 2026).

Legend:
[1] = tested on: Smad2 (ALK5 signaling) in tumor tissue; assay: phospho-SMAD2 / CD8a co-immunofluorescence of tumor sections at day 14; assay type: in vivo, mouse; conditions: day 14, one day post-LY treatment, specifically in CD8α^+ cells, FIG. 1C
Experimental: FIGS. 1A-1D are a series of panels showing that the TGFβR1 antagonist LY2157299 enhances chemo-radiation efficacy dependent on CD8α^+ cells in CT26 tumors. FIG. 1A is a treatment schema in the CT26 tumor model. Six to eight week old BALB/c mice were implanted subcutaneously in the left flank with 2×10^5 CT26 tumor cells. Seven days following implant, animals were randomized based on tumor size, and vehicle control or LY2157299 compound were administered by oral gavage twice daily every 12 hours at 150 mg/kg for 7 consecutive days. At day 14, some mice received five consecutive radiation treatments of 5 Gy targeted to tumor tissue along with 25 mg/kg injections of 5-fluorouracil (5FU) chemotherapy administered intraperitoneally on days 14, 16, and 18. LY treatment groups resumed BID oral dosing from days 21-27. Mean tumor growth (i) and survival (ii) were assessed three times per week up to 100 days or death (FIG. 1B). […] Arrows identify pSMAD2^+CD8^+ cells in vehicle mice. […] NS=not significant, *=p<0.05, **=p<0.01, ***=p<0.001.
Immunofluorescence: Human rectal cancer biopsies were fixed in 10% NBF overnight and mouse tumors were fixed in zinc fixative overnight prior to tissue processing and paraffin embedding followed by sectioning cut at 5 microns for immunofluorescent staining. […]
Production of TGFβ by cells within the tumor was evaluated.

[2] = tested on: CXCR3^+CD8^+ T cells in the tumor microenvironment; assay: Clinical trial NCT02688712: immunofluorescence of rectal tumor biopsies, baseline vs day 15; assay type: in vivo, human; conditions: rectal cancer patient biopsies, baseline vs day 15, FIG. 12D-E
From the text: FIGS. 12A-12E are a series of panels showing TGFβ-mediated suppression of CXCR3-dependent CD8^+ T cell chemotaxis is relieved by LY2157299 in human patients with rectal cancer. […] FIG. 12B illustrates the clinical trial schema for a phase II clinical trial of rectal cancer patients and sample collection intervals. Patients receive two cycles of LY2157299 on days 1-14 and again on days 30-43 while receiving standard of care chemoradiation on days 15-57 prior to surgery. […] Patients are grouped by nodal status following neoadjuvant treatment (ypN). On the right, percent change in frequency of CXCR3^+CD3^+CD4^− T cells between days 1 and 15 is shown versus the neoadjuvant rectal (NAR) score. […] Each patient is shown (thin gray lines) along with the mean of all patients (thick black line). […]
To determine the clinical relevance of our data, the expression of CXCR3 in human patients was interrogated. […] Therefore, the CD4^+ T cell panel was used and back gated on CD45^+CD3^+CD4^− T cells, the majority of which are CD8^+ T cells (on average 65% of CD45^+CD3^+CD4^− cells were CD8^+ T cells using the T effector and memory panel which has CD45, CD3, CD4, and CD8, but not CXCR3), and calculated CXCR3 expression. […] Therefore, forceps-biopsy specimens obtained by proctoscopy at baseline and day 15 were evaluated for alterations in CXCR3^+CD8^+ T cells.

SMILES: Cc1cccc(-c2nn3c(c2-c2ccnc4ccc(C(N)=O)cc24)CCC3)n1 [LY2157299]
- phosphorylation and nuclear translocation of Smad2 in tumor sections [1]: reduced phosphorylation and nuclear translocation
- percentage CXCR3^+CD8^+ T cells in the tumor microenvironment [2]: increase in the percentage CXCR3^+CD8^+ T cells
